What was measured:
cfPac-1 cells = assay: MTT viability of cells sorted into low and high surface PS populations after GEM; type: cell-based, human
Experimental: Cell Sorting. Cells were grown to 60-80% confluency then stained with annexin V-FITC as above but without PI. The cells were then passed through a cell sorter (BD Aria III) and cells with low and high surface PS were collected (˜15% of the cells at each end of the peak; see FIG. 1). The cells were placed in 96 well plates and immediately treated with 0, 25 or 50 nM of GEM. The MTT assay (Roche) was conducted 72 hr later to determine the effect of the GEM on cell viability.

[1] = system: cfPac-1, MiaPaCa-2 and p53.2.2.1 cells; assay: Cell cycle analysis by Hoechst staining after GEM or SapC-DOPS; type: cell-based, human, mouse; conditions: GEM 1-2 μM 24 hrs; SapC-DOPS 20-30 μM 72 hrs
Experimental: For cell cycle analyses of cells treated with GEM or SapC-DOPS, MiaPaCa-2, cfPac-1 and p53.2.2.1 cells were cultured to 70% confluency. Cells (2.5×10^5) were plated overnight in 60 mm cell culture plates. MiaPaCa-2, cfPac-1 and p53.2.2.1 were treated with 1 μM, 2 μM, and 1 μM GEM respectively for 24 hrs. or with 30 μM, 25 μM and 20 μM SapC-DOPS respectively for 72 hrs. (MiaPaCa-2 and p53.2.2.1) or 24 hrs (cfPac-1). Following treatment, 10^6 cells were stained with Hoechst 33342 as described above.

[2] = system: cfPac-1 and MiaPaCa-2 cells; assay: Western blot cyclin B1/cyclin D1 ratio after GEM or SapC-DOPS; type: cell-based, human; conditions: cfPac-1 and MiaPaCa-2, western blot after treatment
Experimental: Protein expression of cyclins D1 (a G1 marker) and B1 (a G2/M marker) following treatment with GEM or SapC-DOPS was measured by western blot and the cyclin B1 to cyclin D1 ratio was quantified in cfPac-1.
Western blot analyses. Following treatment with GEM or SapC-DOPS, cells were washed with PBS and lysed in RIPA Buffer (Sigma) supplemented with protease inhibitor cocktail tablets (Roche). A total of 30 μg of protein extract was separated using 4-15% Mini-PROTEAN Precast Gels (Bio-Rad) and transferred to Hybond-ECL Nitrocellulose membrane (Biosciences). Membranes were blocked for 1 hr. in 5% nonfat dry milk in 0.1% Tween-20 in PBS at 4° C. Blocked membranes were incubated with primary antibodies overnight at 4° C. Subsequently, membranes were washed 3 times for 10 min. with 0.1% Tween-20 in PBS. Secondary antibodies were incubated for 1 hr. at room temperature. Membranes were washed as above and incubated with SuperSignal West Dura Extended Duration Substrate (Thermo Scientific) for 5 min. Detection was performed using the ChemiDoc Touch Imaging System (Bio-Rad). Image Lab 5.2.1 software (Bio-Rad) was used to quantify the proteins on the western blots.

MiaPaCa-2 cells = assay: Cell cycle stage targeting in hydroxyurea-synchronized cells; type: cell-based, human; conditions: G1 synchronized MiaPaCa-2; 1 μM GEM 24 hrs or 30 μM SapC-DOPS 48 hrs
Experimental: MiaPaCa-2 were treated with 4 mM hydroxyurea (HU) for synchronization. […] Following drug treatment, percent of cells in G1 and G2/M phase was measured using Hoechst staining*p<0.05**p<0.001, #p<0.0001.
MiaPaCa-2 cells were grown to 70% confluency. Cells were treated with hydroxyurea (HU) in complete medium to a final concentration of 4 mM for 24 hrs.

[3] = system: PDAC cells (MiaPaCa-2, cfPac-1); assay: Surface PS by annexin V-FITC flow cytometry after GEM exposure in vitro; type: cell-based, human
Experimental: (§1) Cells were isolated 48 hr. following treatment with 40 mg/kg GEM, stained with annexin V-FITC and analyzed by flow cytometry. Only those cells that were negative for PI staining were assessed for annexin V labeling. Less than 10% of the cells (in vitro or in vivo) were killed by the GEM treatment.
Phosphatidylserine levels measurements. Surface membrane PS levels were measured using annexin V-FITC (Invitrogen, Carlsbad, CA) as previously described (Chu et al. PLoS One 2013; 8(10):e75507, Davis et al. Oncotarget 2019; 10:856-868). In brief, cells were harvested using trypsin-EDTA (Thermo Fisher Scientific); the trypsin was inactivated with complete media and the cells were washed with PBS and resuspended at 1,000,000 cells/ml in annexin staining buffer. Aliquots of cells (0.1 ml/tube) were incubated with 10 μl of annexin V-FITC for 15 minutes at room temperature in the dark. Then 400 μl of annexin staining buffer was added to each tube. Samples were kept on ice and analyzed by flow cytometry within 1 hour after addition of 2 μl of 50 μg/ml propidium iodide (PI; to exclude dead cells). […] To this end, cells were incubated for 24 or 48 hr. with 10 nM-1 μM GEM and then stained with annexin V-FITC and PI and analyzed by flow cytometry.

[4] = system: human pancreatic duct epithelial cells (HPDE); assay: Surface PS after GEM exposure in normal pancreatic cells; type: cell-based; conditions: response to gemcitabine
Experimental: Phosphatidylserine levels measurements. Surface membrane PS levels were measured using annexin V-FITC (Invitrogen, Carlsbad, CA) as previously described (Chu et al. PLoS One 2013; 8(10):e75507, Davis et al. Oncotarget 2019; 10:856-868). In brief, cells were harvested using trypsin-EDTA (Thermo Fisher Scientific); the trypsin was inactivated with complete media and the cells were washed with PBS and resuspended at 1,000,000 cells/ml in annexin staining buffer. Aliquots of cells (0.1 ml/tube) were incubated with 10 μl of annexin V-FITC for 15 minutes at room temperature in the dark. Then 400 μl of annexin staining buffer was added to each tube. Samples were kept on ice and analyzed by flow cytometry within 1 hour after addition of 2 μl of 50 μg/ml propidium iodide (PI; to exclude dead cells). The effects of GEM exposure on surface PS levels were studied in human PDAC cell lines (cfPac-1 and Mia-PaCa-2), a mouse PDAC cell line (p53 2.1.1) (Collisson et al. Cancer Discov 2012; 2(8):685-93) and immortalized, non-tumorigenic human pancreatic duct epithelial cells (HPDE). To this end, cells were incubated for 24 or 48 hr. with 10 nM-1 μM GEM and then stained with annexin V-FITC and PI and analyzed by flow cytometry.

[5] = system: MiaPaCa-2 subcutaneous tumors; assay: Surface PS of tumor cells isolated from subcutaneous xenografts after GEM in vivo; design: species or system mouse
Experimental: as §1
For assessment of surface PS, when the subcutaneous tumors were 100-300 mm^3, some mice were treated with 40 mg/kg GEM and the tumors were removed 48 hr. later. The tumors were minced then incubated with 5 ml of collagenase type IV (200 U/ml) at 37° C. for 2 hrs. The cells were passed through a 40 μm filter, washed with PBS then stained with annexin V-FITC and analyzed by flow cytometry.

[6] = Mouse body weight during treatment; type: in vivo; conditions: tumor-bearing mice, compared to control or to GEM alone
Description: The mice treated in FIG. 6 were weighed on the indicated days. […] However, SapC-DOPS prevented the weight loss due to GEM alone. *p<0.01 between saline and GEM alone. #p<0.01 between GEM and SapC-DOPS or GEM and the combination of GEM and SapC-DOPS.

With `Nc1ccn([C@@H]2O[C@H](CO)[C@@H](O)C2(F)F)c(=O)n1` [GEM, 2′, 2′-difluoro 2′deoxycytidine] the “cell death in low vs high surface PS populations” value (cfPac-1 cells; sorted cells, 50 nM GEM) was “cell death was more profound in the low surface PS population compared to the high surface PS population”, the “cell killing in low vs high surface PS populations” value (cfPac-1 cells; sorted cfPac-1 cells, GEM 72 hr, MTT) was “killed more cells from the low surface PS population compared to the high surface PS population” and the “percentage of cells in G1 phase” value [1] was “significant decrease in the percentage of cells in the G1 phase”. For the same molecule, the “percentage of cells in G2/M phase” value [1] was “increased percentage in the G2/M phase”, the “cyclin B1/cyclin D1 protein ratio” value [2] was “an increase in the cyclin B1/cyclin D1 ratio” and the “targeting of cells when G1 synchronized cells are treated” value (MiaPaCa-2 cells) was “increased targeting of G1 cells compared to SapC-DOPS”. For the same molecule, the “surface PS in viable (PI-negative) PDAC cells” value ([3]; sub-toxic GEM, 48 hr, annexin V-FITC) was “increased surface PS in viable PDAC cells”, the “apoptosis at sub-toxic concentrations” value ([3]; sub-toxic concentrations of GEM, PDAC cells) was under 10% and the “PS surface expression in normal pancreatic cells” value [4] was “no increased PS surface expression”. For the same molecule, the “surface PS in tumor cells isolated from subcutaneous xenografts” value ([5]; 48 hrs after 40 mg/kg GEM in vivo) was “induced an increase in surface PS in tumor cells”, the “cells killed by the GEM treatment” value ([5]; in vitro or in vivo, FIG. 4 treatments) was “Less than 10%” and the mouse weight [6] was “significant decrease in mouse weight”.
